Laboratory results: patent US12729368B2, “Methods and compositions for generating oligodendrocyte progenitor cells” (Trailhead Biosystems Inc., priority 2022, dated 2026)
Several values for one entry are separate records, joined by “and”; a condition that tells them apart may be missing. Equal entries are not always repeated.

Tests used:
Format in all cases: cell-based, human
stage 2 early-OPCs = test: HD-DoE 12-factor model for stage 3 (version 1) on stage 2 early-OPCs; details: positive
Procedure: In another model, the effects of Activin A and TTNPB along with LDN193189, MHY1485, PDGF-AA, AICAR, FGF2, CHIR99021, DBZ, MK2206, Purmorphamine and T3+T4 were tested on gene profile of differentiating cells. When this model was optimized for maximum expression of SOX10 at 54.7, we observed Activin A again had positive regulatory impact on its expression, with factor contribution of 4.7. Other positive factors included MK2206, with the highest factor contribution at 16.2, MHY1485 at 11.49, CHIR99021 at 9.6, DBZ at 9.3, FGF2 at 3.6 and PDGF-AA, with factor contribution less than 3 (FIG. 20).
In this model, we also investigated the conditions of expression of another important OPC gene, CSPG4 (Goldman and Kuypers (2015) Development 142:3983-95: van Tilborg et al. (2018) Glia 66:221-238).
Dynamic profile analysis was used to better assess the impact of the factors on our selected genes and find the combination set that can optimize their expression (FIG. 22). According to this analysis, even though Activin A has a positive effect on SOX10, it decreases level of PDGFRa and OLIG1. […] Moreover, SOX10 is one of the main transcription factors of oligodendrocytes, along with OLIG2 and NKX2-2, that has shown the potential to commit the stem cells to oligodendrocytes in reprogramming efforts (Wang et al. (2014) Proc Natl Acad Sci USA 111:E2885-94; Garciá-León et al. (2018) Stem Cell Reports 10:655-672). […] One of the main challenges of differentiating cells to oligodendrocyte fate is controlling the mixed population and increasing the purity of the culture by committing more cells to oligodendrocyte over neuronal identity. Therefore, DBZ was excluded from the final recipe.
At this point, we investigated the expression profile of a larger group of genes defining oligodendrocyte progenitor population at a later stage, including ID2, CNP and BCAN (Perlman et al. (2020). Glia 68:1291-1303; Goldman and Kuypers (2015) Development 142:3983-95). In this model, these genes were expressed at 1900, 660 and 44, respectively.

pre-OPCs = test: HD-DoE 8-factor model for stage 2 (version 2) on pre-OPCs; details: positive
Procedure: To engineer the recipe of stage 2 of differentiation, cells were first cultured in the stage 1 media described in Example 1, then, 48 or 96 different combinations of effectors generated using Design-of-Experiments compression through D-optimality were robotically prepared. The effector combinations were prepared in a basal media and were subsequently added to the cells, which were then allowed to differentiate. Three days later RNA extraction was performed, and gene expression was obtained using quantitative PCR analysis. The data was normalized and modeled using partial least squares regression analysis to the effector design, resulting in the generation of gene-specific models, which after model tuning for maximal predictive power, provided explanation of the effectors ability to control the expression of individual genes, combinatorically, and individually. Solutions within the tested space could then be explored to address desirability.
At this point, due to short duration of culture (only six days in vitro) we decided to focus on maximal expression of OLIG2 and maintenance of high expression of NKX2-2, while initiating expression of SOX10, OLIG1 and PDGFRa, to guide the cells towards oligodendrocyte fate (Emery and Lu (2015). Cold Spring Harb Perspect Biol. 7:a020461; Perlman et al. (2020). Glia 68:1291-1303; Goldman and Kuypers (2015) Development 142:3983-95). In one 8-factor model, the individual and combinatorial impact of CHIR99021 (a WNT pathway agonist), AGN193109 (an RA pathway antagonist), FGF-2 (an FGFR agonist), Purmorphamine (an SHH pathway agonist), AICAR (an AMPK agonist), GW3965 (an LXR pathway agonist), GW590735 (a PPAR-a agonist) and AZD3147 (a mTOR antagonist) on further differentiation of cells were tested.

[1] = tested on: cells cultured in stage 1 and stage 2 differentiation media; test: HD-DoE 8-factor model for stage 3 (version 2); details: for factor contribution: positive
[2] = optimized for maximum expression of OLIG1 at 454.7
[3] = optimized for maximum expression of OLIG2 at 3325

Compound	factor contribution (stage 2 early-OPCs; optimized for maximum expression of CSPG4 at 38.6)	factor contribution (pre-OPCs; [2])	factor contribution (pre-OPCs; [3])	factor contribution ([1]; optimized for maximum expression of PDGFRa at 853.4)	factor contribution (stage 2 early-OPCs; optimized for maximum expression of SOX10 at 54.7)	effect on late OPC genes and neuronal genes ([1]; factor plots vs concentration)	factor contribution ([1]; optimized for SOX10 at 41.04)
c1ccc2c(Oc3nc(Nc4ccc(N5CCOCC5)cc4)c4ncn(C5CCCCC5)c4n3)cccc2c1 [Purmorphamine]	10.3	22.75	7.39	20.6 and 20.61			
FGF2: FGF pathway activator, an FGFR agonist		9.9	5.2		3.6	increased the expression levels of OPC genes while decreasing the expression levels of neuronal genes	15.3
